The values that follow come from US9561228B2 (Celgene Avilomics Research, Inc., priority 2013, dated 2017).

Read-outs that look alike come from different tables or passages of the source.

One test deals with T1, Erk1 (Homo sapiens, UniProt P27361).
T1 construct: purchased Millipore 14-439
In words: Protein Mass Modification Assay (intact protein MALDI, 60 min, 10-fold excess of compound). The test is classed as binding. In outline: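 Human Erk1 was incubated 60 min at room temperature with a 10-fold molar excess of compound, then analysed as intact protein by MALDI with sinapinic acid matrix. The centroid mass shift versus untreated protein was divided by compound molecular weight to give percent modified protein.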

A further test deals with T2, MEK1 activated ERK1 (Homo sapiens, UniProt P27361).
T2 construct: purchased Millipore (Billerica, Mass.) 14-439-K
T2 sequence (P27361 whole entry): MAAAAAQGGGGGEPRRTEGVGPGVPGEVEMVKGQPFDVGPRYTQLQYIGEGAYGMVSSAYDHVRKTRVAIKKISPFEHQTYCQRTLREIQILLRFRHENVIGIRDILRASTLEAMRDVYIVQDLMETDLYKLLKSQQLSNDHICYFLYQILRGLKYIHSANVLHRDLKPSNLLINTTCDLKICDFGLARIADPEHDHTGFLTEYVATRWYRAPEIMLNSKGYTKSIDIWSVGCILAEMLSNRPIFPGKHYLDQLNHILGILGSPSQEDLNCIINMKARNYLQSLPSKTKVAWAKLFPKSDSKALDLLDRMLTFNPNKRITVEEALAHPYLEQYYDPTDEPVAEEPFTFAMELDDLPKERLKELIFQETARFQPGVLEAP
Briefly: Omnia continuous-read kinase assay for potency against MEK1 activated ERK1. The test is classed as biochemical. In outline:
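Apparent IC50 came from initial reaction slopes (RFU vs time) plotted against log inhibitor with a variable-slope fit. Reactions were started with ERK1 (4 nM final) added to 50 μM ATP, roughly at its appKM, and 10 μM Sox-conjugated ST17 peptide in 20 mM Tris pH 7.5, 5 mM MgCl2. Fluorescence was monitored every 71 seconds.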

The subject of test [1] is ERK1/2 phosphorylation of p90RSK in A375 cells. Briefly: Detection of total and phosphor-RSK by MSD ELISA (A375). The class given is cell-based. Conditions: Homo sapiens, A-375, read-out: ERK1/ERK2 PRSK A375 EC50. In outline:
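A375 cells serum-starved overnight in DMEM/0.1% FBS, then treated 2 h at 37° C with compound (1000× DMSO dilutions into medium). Lysates captured on RSK antibody-coated MSD plates; phospho-RSK (Ser380) and total RSK detected with SulfoTag secondary antibodies by electrochemiluminescence.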

The mark [2] stands for this setting: MEK1 activated ERK1, ATP at KM, read-out: ERK1 Omnia WT ATP KM IC50.

T1 sequence (P27361 whole entry): as above

As usually defined, the IC50 is the point on the concentration scale where inhibition reaches its midpoint. In the case of `C=CC(=O)Nc1ccccc1Nc1nc(Nc2cc(OC)ncc2C)ncc1C(F)(F)F` [Compound I-85, N-(2-((2-((2-Methoxy-5-methylpyridin-4-yl)amino)-5-(trifluoromethyl)pyrimidin-4-yl)amino)phenyl)acrylamide], the “ERK1 Mass Mod (%)” value on Erk1 is “E (a mass modification of ≧70%)”. The IC50 on MEK1 activated ERK1 (setting [2]) is below 0.1 µM. In test [1], the EC50 was below 0.1 µM.

Regarding `C=CC(=O)Nc1cc(C)ccc1Nc1nc(NC2CCC(=O)NC2)ncc1C(F)(F)F` (racemic) [Compound I-368, Rac-N-(5-methyl-2-((2-((6-oxopiperidin-3-yl)amino)-5-(trifluoromethyl)pyrimidin-4-yl)amino)phenyl)acrylamide], the “ERK1 Mass Mod (%)” value at Erk1 is recorded as “E (a mass modification of ≧70%)”. Moreover, the IC50 on MEK1 activated ERK1 (ATP at KM, WT) was in the range of 0.101 to 0.5 µM. In addition, in test [1], the EC50 was above 1 µM.

As to `C=CC(=O)Nc1cc(C)ccc1Nc1nc(Nc2nc(OC)ncc2C)ncc1C(F)(F)F` [Compound I-347, N-(2-((2-((2-methoxy-5-methylpyrimidin-4-yl)amino)-5-(trifluoromethyl)pyrimidin-4-yl)amino)-5-methylphenyl)acrylamide], the “ERK1 Mass Mod (%)” value at Erk1 was “E (a mass modification of ≧70%)”. Besides, on MEK1 activated ERK1 (ATP at KM, WT), the IC50 was below 0.1 µM. Besides, the EC50 in test [1] fell in the range of 0.101 to 0.5 µM.

Regarding `C=CC(=O)Nc1cc(C)ccc1Nc1nc(Nc2ccnc3ccccc23)ncc1C(F)(F)F` [Compound I-379, N-(5-methyl-2-((2-(quinolin-4-ylamino)-5-(trifluoromethyl)pyrimidin-4-yl)amino)phenyl)acrylamide], the “ERK1 Mass Mod (%)” value on Erk1 is listed as “E (a mass modification of ≧70%)”. In addition, at MEK1 activated ERK1 (ATP at KM, WT), the IC50 lay in the range of 0.101 to 0.5 µM. For the same compound, in test [1], the EC50 was below 0.1 µM.

On to `C=CC(=O)Nc1cc(C)ccc1Nc1nc(Nc2cc(OC)nc(N3CCN(C(C)=O)CC3)c2)ncc1C(F)(F)F` [Compound I-93, N-(2-((2-((2-(4-Acetylpiperazin-1-yl)-6-methoxypyridin-4-yl)amino)-5-(trifluoromethyl)pyrimidin-4-yl)amino)-5-methylphenyl)acrylamide], for which the “ERK1 Mass Mod (%)” value at Erk1 is listed as “E (key: E: a mass modification of ≧70%; F: a mass modification of 31-69%; G: a mass modification ≦30%)”. In addition, the 50% inhibitory concentration (IC50) on MEK1 activated ERK1 (setting [2]) is 0.101 to 0.5 µM. The EC50 in test [1] was below 0.1 µM.

Regarding `C=CC(=O)Nc1cc(OCC(N)=O)ccc1Nc1nc(Nc2cc(OC)ncc2C)ncc1C(F)(F)F` [Compound I-398, N-(5-(2-amino-2-oxoethoxy)-2-((2-((2-methoxy-5-methylpyridin-4-yl)amino)-5-(trifluoromethyl)pyrimidin-4-yl)amino)phenyl)acrylamide], at Erk1, the “ERK1 Mass Mod (%)” value was “E (a mass modification of ≧70%)”. For the same compound, the IC50 on MEK1 activated ERK1 (ATP at KM, WT) was below 0.1 µM. The EC50 in test [1] is below 0.1 µM.

For `C#CC(=O)Nc1cc(C)ccc1Nc1nc(Nc2cc(OC)ncc2C)ncc1C(F)(F)F` [Compound I-345, N-(2-((2-((2-methoxy-5-methylpyridin-4-yl)amino)-5-(trifluoromethyl)pyrimidin-4-yl)amino)-5-methylphenyl)propiolamide], the “ERK1 Mass Mod (%)” value on Erk1 is reported as “E (a mass modification of ≧70%)”. At MEK1 activated ERK1 (ATP at KM, WT), the IC50 is 0.101 to 0.5 µM. The EC50 in test [1] was above 1 µM.

`C=CC(=O)Nc1cc(C)c(F)cc1Nc1nc(Nc2nc(OC)ncc2Cl)ncc1C(F)(F)F` [Compound I-374, N-(2-((2-((5-chloro-2-methoxypyrimidin-4-yl)amino)-5-(trifluoromethyl)pyrimidin-4-yl)amino)-4-fluoro-5-methylphenyl)acrylamide]: the “ERK1 Mass Mod (%)” value at Erk1 is given as “E (a mass modification of ≧70%)”. The IC50 on MEK1 activated ERK1 (ATP at KM, WT) is below 0.1 µM. Besides, in test [1], the EC50 was below 0.1 µM.

As to `C=CC(=O)Nc1cc(C)ccc1Nc1nc(Nc2cc(OC)ncc2Cl)ncc1C(F)(F)F` [Compound I-351, N-(2-((2-((5-chloro-2-methoxypyridin-4-yl)amino)-5-(trifluoromethyl)pyrimidin-4-yl)amino)-5-methylphenyl)acrylamide], the “ERK1 Mass Mod (%)” value at Erk1 is “F (a mass modification of 31-69%)”. The IC50 at MEK1 activated ERK1 (ATP at KM, WT) is 0.101 to 0.5 µM. Moreover, the EC50 in test [1] lay within 0.101 to 0.5 µM.

On to `C=CC(=O)Nc1cc(C)ccc1Nc1nc(Nc2cc(OC)ncc2C(F)F)ncc1C(F)(F)F` [Compound I-431, N-(2-((2-((5-(difluoromethyl)-2-methoxypyridin-4-yl)amino)-5-(trifluoromethyl)pyrimidin-4-yl)amino)-5-methylphenyl)acrylamide], for which the “ERK1 Mass Mod (%)” value on Erk1 is on record as “E (a mass modification of ≧70%)”. The IC50 at MEK1 activated ERK1 (ATP at KM, WT) is 0.501 to 0.999 µM. Also, the EC50 in test [1] was in the range of 0.101 to 0.5 µM.

As for `C=CC(=O)Nc1cc(C)ccc1Nc1nc(Nc2cc(-c3nc[nH]n3)ccc2C)ncc1C(F)(F)F` [Compound I-373, N-(5-methyl-2-((2-((2-methyl-5-(1H-1,2,4-triazol-3-yl)phenyl)amino)-5-(trifluoromethyl)pyrimidin-4-yl)amino)phenyl)acrylamide], the “ERK1 Mass Mod (%)” value at Erk1 was “F (a mass modification of 31-69%)”. The IC50 on MEK1 activated ERK1 (ATP at KM, WT) is above 1 µM. For the same compound, the EC50 in test [1] lay within 0.501 to 0.999 µM.

On to `C=CC(=O)Nc1cc(C)ccc1Nc1nc(Nc2ncc(F)c(OC)n2)ncc1C(F)(F)F` [Compound I-356, N-(2-((2-((5-fluoro-4-methoxypyrimidin-2-yl)amino)-5-(trifluoromethyl)pyrimidin-4-yl)amino)-5-methylphenyl)acrylamide], for which the “ERK1 Mass Mod (%)” value at Erk1 is “E (a mass modification of ≧70%)”. In addition, at MEK1 activated ERK1 (ATP at KM, WT), the IC50 fell in the range of 0.501 to 0.999 µM. Besides, the EC50 in test [1] lay in the range of 0.101 to 0.5 µM.

With `C=CC(=O)Nc1cc(C)ccc1Nc1nc(Nc2cc(OC(C)C)ncc2C)ncc1C(F)(F)F` [Compound I-369, N-(2-((2-((2-isopropoxy-5-methylpyridin-4-yl)amino)-5-(trifluoromethyl)pyrimidin-4-yl)amino)-5-methylphenyl)acrylamide], the “ERK1 Mass Mod (%)” value on Erk1 is “F (a mass modification of 31-69%)”. Further, the IC50 at MEK1 activated ERK1 (ATP at KM, WT) is above 1 µM. Moreover, the EC50 in test [1] was above 1 µM.

`C=CC(=O)Nc1cc(C)ccc1Nc1nc(Nc2cc(-c3c[nH]cn3)ccc2C)ncc1C(F)(F)F` [Compound I-378, N-(2-((2-((5-(1H-imidazol-4-yl)-2-methylphenyl)amino)-5-(trifluoromethyl)pyrimidin-4-yl)amino)-5-methylphenyl)acrylamide]: on Erk1, the “ERK1 Mass Mod (%)” value is recorded as “E (a mass modification of ≧70%)”. In addition, the IC50 at MEK1 activated ERK1 (ATP at KM, WT) is 0.501 to 0.999 µM. In addition, the EC50 in test [1] was in the range of 0.501 to 0.999 µM.

For the compound `C=CC(=O)Nc1cc(C)ccc1Nc1nc(Nc2nc(OC)ncc2C#N)ncc1C(F)(F)F` [Compound I-346, N-(2-((2-((5-cyano-2-methoxypyrimidin-4-yl)amino)-5-(trifluoromethyl)pyrimidin-4-yl)amino)-5-methylphenyl)acrylamide], at Erk1, the “ERK1 Mass Mod (%)” value is listed as “E (a mass modification of ≧70%)”. At MEK1 activated ERK1 (ATP at KM, WT), the IC50 lay in the range of 0.501 to 0.999 µM. In test [1], the EC50 is 0.101 to 0.5 µM.

In the case of `C=CC(=O)Nc1cc(C)ccc1Nc1nc(Nc2cc(OC)nc(OC)c2)ncc1C(F)(F)F` [Compound I-96], the “ERK1 Mass Mod (%)” value at Erk1 was “E (key: E: a mass modification of ≧70%; F: a mass modification of 31-69%; G: a mass modification ≦30%)”. Besides, the IC50 at MEK1 activated ERK1 (setting [2]) lay in the range of 0.101 to 0.5 µM. Besides, in test [1], the EC50 lay in the range of 0.101 to 0.5 µM.

Turning to `C=CC(=O)Nc1cc(C(=O)N2CCN(S(C)(=O)=O)CC2)ccc1Nc1nc(Nc2cc(OC)ncc2C)ncc1C(F)(F)F` [Compound I-401, N-(2-((2-((2-methoxy-5-methylpyridin-4-yl)amino)-5-(trifluoromethyl)pyrimidin-4-yl)amino)-5-(4-(methylsulfonyl)piperazine-1-carbonyl)phenyl)acrylamide], on Erk1, the “ERK1 Mass Mod (%)” value is “E (a mass modification of ≧70%)”. Further, the IC50 on MEK1 activated ERK1 (ATP at KM, WT) is 0.101 to 0.5 µM. Also, the EC50 in test [1] lay within 0.101 to 0.5 µM.

Take `C=CC(=O)Nc1cc(C)ccc1Nc1nc(Nc2cc(OCC)ncc2C)ncc1C(F)(F)F` [Compound I-358, N-(2-((2-((2-ethoxy-5-methylpyridin-4-yl)amino)-5-(trifluoromethyl)pyrimidin-4-yl)amino)-5-methylphenyl)acrylamide]: at Erk1, the “ERK1 Mass Mod (%)” value is listed as “E (a mass modification of ≧70%)”. In addition, at MEK1 activated ERK1 (ATP at KM, WT), the half-inhibitory concentration (IC50) is 0.101 to 0.5 µM. In test [1], the EC50 fell in the range of 0.101 to 0.5 µM.

With `C=CC(=O)Nc1cc(C)ccc1Nc1nc(Nc2c[nH]c(=O)cc2C)ncc1C(F)(F)F` [Compound I-370, N-(5-methyl-2-((2-((4-methyl-6-oxo-1,6-dihydropyridin-3-yl)amino)-5-(trifluoromethyl)pyrimidin-4-yl)amino)phenyl)acrylamide], the “ERK1 Mass Mod (%)” value at Erk1 is “E (a mass modification of ≧70%)”. At MEK1 activated ERK1 (ATP at KM, WT), the IC50 fell in the range of 0.101 to 0.5 µM. The EC50 in test [1] is above 1 µM.

Consider `C=CC(=O)Nc1cc(C)ccc1Nc1nc(Nc2nc(OC)ncc2C(F)(F)F)ncc1C(F)(F)F` [Compound I-355, N-(2-((2-((2-methoxy-5-(trifluoromethyl)pyrimidin-4-yl)amino)-5-(trifluoromethyl)pyrimidin-4-yl)amino)-5-methylphenyl)acrylamide], for which the “ERK1 Mass Mod (%)” value at Erk1 was “E (a mass modification of ≧70%)”. In addition, at MEK1 activated ERK1 (ATP at KM, WT), the IC50 lay in the range of 0.101 to 0.5 µM. Besides, the EC50 in test [1] was in the range of 0.101 to 0.5 µM.

`C=CC(=O)Nc1cc(C)ccc1Nc1nc(Nc2nc(OC)ncc2F)ncc1C(F)(F)F` [Compound I-357, N-(2-((2-((5-fluoro-2-methoxypyrimidin-4-yl)amino)-5-(trifluoromethyl)pyrimidin-4-yl)amino)-5-methylphenyl)acrylamide]: the “ERK1 Mass Mod (%)” value at Erk1 was “E (a mass modification of ≧70%)”. Besides, at MEK1 activated ERK1 (ATP at KM, WT), the IC50 lay within 0.101 to 0.5 µM. For the same compound, the EC50 in test [1] lay within 0.101 to 0.5 µM.
